According to a melting point compilation (Tetko et al.; mined from patent text by program, amines drawn as free bases though some values may be those of a salt):

melting point [°C]	SMILES
190 to 200	CC(=O)N(C)c1c(N(C)C)cc(CC(C#N)=CNc2ccccc2)cc1N(C)C
82 to 84	CCOC(=O)c1cc(CC)sc1Nc1ccc(F)cc1N
70 to 72	Cn1nc(-c2cc(C=O)c(Cl)cc2F)c(Cl)c1C(F)(F)F
248 to 252	O=P(c1ccccc1)(c1ccccc1)c1ccc(P(=O)(c2ccccc2)c2ccccc2)nn1
172 to 181	COc1ccc(Cc2nc3c(O)cccc3o2)cc1OC1CCCC1
172 to 174	Cc1c(NC(=O)c2ccc(-c3ccc(F)cc3)cc2)ccc2cc(CN3CCCC3Cc3ccccc3)cnc12 (stereo not given)
169 to 171	Cc1c(NC(=O)CC(C)(C)C)cc2c(c1C)OC(C)(C)C2(O)c1cccc(CO)c1 (stereo not given)
275 to 276	COc1cccc(OC)c1-c1cc(C(=O)O)nn1-c1ccc(C(N)=O)cc1C
118 to 119	COC(=O)C(=O)c1ccc(OCCOc2ccc3ccccc3c2)c(C)c1
172 to 174	CCCCCCCC1=CC(=O)OC1(O)CNc1ccccc1 (stereo not given)
258 to 260	N#Cc1cnc2c(sc3c([N+](=O)[O-])cccc32)c1Cl
189 to 190	COC(=O)c1c(C)n(-c2ccc(Cl)cc2)c(C)cc1=O
167 to 169	COc1cc([N+](=O)[O-])c2nccc(C)c2c1Cl
172 to 175	Oc1ccc(-c2nnc(CSCCOc3ccccc3)o2)cc1
240 to 241	CNC(=O)C(NC(=O)Nc1n[nH]c(=S)s1)c1ccccc1 (stereo not given)
128 to 130	CCc1nc2c(C)cc(C)nc2n1-c1ccc(CCNC(=O)NS(=O)(=O)c2cc3ccccc3s2)cc1
131 to 133	CCOC(=O)c1cccc(C2COc3cc(O)c(O)cc3C2)c1 (stereo not given)
184	Cc1ccc(Cc2cnc(NCCCCNc3ccccn3)[nH]c2=O)cn1
138 to 140	CCC(=C(c1ccccc1)c1ccc(C=CC(=O)N(CC)CC)cc1)c1ccccc1
146 to 147	NNC(=O)c1sc2cnccc2c1Oc1ccc(C(F)(F)F)cc1
154 to 157	Nc1cc(Cl)nc(SC/C=C/C(=O)N2CCOCC2)n1
167 to 170	CC(C)c1nc(CCOC(N)=O)n(Cc2ccccc2N)c1Sc1cc(Cl)cc(Cl)c1

melting point [°C]	SMILES
66 to 67	O=C(OCCCl)c1ccccc1CS(=O)(=O)Cl
159 to 160	Cc1c(NC(=O)c2ccc(-c3ccc(F)cc3)cc2F)ccc2cc(CN3CCCCCC3)cnc12
68 to 70	CON(C)C(=O)NC(CSC(C)=O)Cc1ccccc1 (stereo not given)
109 to 111	O=C(N[C@@H](Cc1ccc2ccccc2c1)C(=O)O)OCc1ccccc1
112 to 114	Cc1ncn(C(=O)Nc2ccccc2)c1Cl
140	O=c1[nH]c(=O)n(C2CC(F)C(CO)O2)cc1C#CI (stereo not given)
68 to 69	CC(=O)SC(CC(=O)c1ccc(Cl)cc1)C(=O)O (stereo not given)
144 to 146	OC(CCc1ccc(F)cc1)c1cnc2sc3c(n12)CCCCC3 (stereo not given)
214 to 215	Cc1c(C)c2c(c(C)c1NC(=O)CC(C)(C)C)OCC2c1ccc(C(C)C)cc1 (stereo not given)
158	O=Cc1ccc(C(=O)Nc2ccc(Cl)cc2)cc1
115 to 116	O=C(O)C(=O)NC1CCCCCCC1
71 to 71.5	Cc1cccc2c1CCN=C2c1ccc(F)cc1
239 to 241	COc1ccc2c(c1)Sc1ccccc1C(=S)N2
182 to 183	CCc1[nH]n(C2CCCC2)c2nc(-c3cc(OCCN4CCOCC4)cc(OCCN4CCOCC4)c3)nc(=O)c1-2
172 to 173	Cc1nn(-c2ccccn2)c2[nH]c3c(c(=O)c12)CCCC3
174 to 175	COC(=O)[C@@H](Cc1ccccc1)Oc1c(Br)cc(-c2c3ccccc3c(Br)c3sc(C)c(C)c23)cc1Br
126 to 128	COc1ccccc1N(CCN1CCC(C(=O)c2ccc(F)cc2)CC1)S(=O)(=O)c1cccnc1
211 to 213	Cn1ccc(-c2cc3nccnc3[nH]2)c1
230 to 233	COc1ccc2c(c1)S(=O)(=O)C(C(=O)Nc1ccc(Cl)c(Cl)c1)C(=O)N2C (stereo not given)
171 to 174	COCCc1nc2c(N)nc3ccccc3c2n1CCOCCNC(=O)Nc1ccccc1
111	COc1c(Cl)cc(OCC=C(Cl)Cl)cc1C=NO

More lines, now with the values behind:

SMILES	melting point [°C]
CC(=O)NC[C@H]1CN(c2ccc(C3C=CS(=O)(=O)CC3)cc2)C(=O)O1 (stereo not given in full)	187 to 189
COC(=O)/C(=C/C=C/c1cn(C(C)=O)c2ccccc12)OC	107 to 108
O=C1NC(c2ccccc2)c2cc(Cl)ccc2-n2nc(CO)cc21 (stereo not given)	260 to 262
CC(C)NCC(O)COc1nccnc1Cl (stereo not given)	99 to 100
CC[C@H]1[C@H](O)CC(=O)N1c1ccc(C#N)c(Cl)c1C	142 to 146
COc1ccc2nc(-c3cccc(C)c3)c(-c3ccnc(NC4CCCCC4)c3)n2n1	188 to 189
CNc1cc(Cl)cc(N)c1[N+](=O)[O-]	129
CC(C)(C)c1ccc(C(C)(C)C(=O)Oc2ccc(SCCCC(=O)O)cc2)cc1	86 to 87
CC(=O)c1ccc(OC2SCC(O)C(O)C2O)cn1 (stereo not given)	178 to 179
Nc1nc2ccccc2c2sc(CCc3ccccc3)nc12	158 to 159
COc1ccc(OCCCCCBr)c(C2Sc3cc(Cl)ccc3N(C)C2=O)c1 (stereo not given)	105 to 106
O=C(O)c1ccc(Cl)c2c1NCCS2	220
N#Cc1ccc2c(c1)OC(=O)C(Br)C2Br (stereo not given)	220 to 230
CN(Cc1nnc2n1-c1ccc(Cl)cc1C(c1ccccc1)=NC2)CC1CC1	171 to 176
CCOC(=O)c1ccc(CCC(=O)O)cc1	108 to 110
COc1cccc([C@H]2O[C@H](CC(=O)O)C(=O)N(CC(C)(CO)CO)c3ccc(Cl)cc32)c1OC	208 to 210
COc1cc(-c2nc3ccccc3n2Cc2cccc(C)c2)cc(OC)c1OC	78
CC1(C(CCO)C(N)=O)OCCc2c1[nH]c1ccccc21 (stereo not given)	159 to 161
OC1CSc2nc(SCc3ccccc3)nn21 (stereo not given)	136 to 138
CSCC1(c2onc(-c3ccc(O)cc3)c2-c2ccccc2)CC1	176 to 177
CS(=O)(=O)Nc1cc2occ(C(=O)Nc3nnn[nH]3)c(=O)c2cc1Oc1ccccc1	> 250

SMILES	melting point [°C]
CC(C)(C)C1CC(=Cc2ccccc2)C(=O)C(=Cc2ccccc2)C1 (stereo not given)	137 to 139
O=C1Nc2ccc(C(F)(C(F)(F)F)C(F)(F)F)cc2CN1NCc1cccnc1	159 to 161
Cc1nc(-c2ccc(OCC(C)C)c([N+](=O)[O-])c2)sc1C(=O)OCC(C)C	112 to 113
COc1ccc2c(C3NCCc4ccccc43)c(O)ccc2c1 (stereo not given)	148 to 151
COCc1ccc2nc(SCCN3CCN(CC(=O)Nc4c(C(C)C)cccc4C(C)C)CC3)oc2c1COC	96 to 97
CCc1c(C(=O)c2cccc(Cl)c2Cl)c2cccc(Br)c2n1CCCN(C)S(C)(=O)=O	111
Cc1cc(-n2cccn2)c2cccc(OCc3c(Cl)ccc(S(=O)(=O)N4CCC[C@H]4C(=O)O)c3Cl)c2n1	148
COCC(=O)Nc1cccc(C2(c3ccncc3)N=C(N)N(C)C2=O)c1 (stereo not given)	92 to 93
CCOC(=O)c1nc2sc(CC)c([N+](=O)[O-])c2c(=O)[nH]1	200 to 212
ONc1cccc(OCc2nc3ccccc3s2)c1	112 to 114
Fc1ccc2[nH]cc(C3=CCC4(CC3)OCCO4)c2c1	153 to 155
CCCCCCCCCCCCCCCCCCOc1cn(-c2ccccc2)c(CO)cc1=O	67 to 72
CCCC(=O)c1ccc(=O)[nH]c1CCC	86 to 88
CCOCC(=O)Nc1nc(-c2ccco2)c(C(=O)C2CCOCC2)s1	121 to 126
C[Si](C)(C)C(CN)CC(=O)O (stereo not given)	199 to 201
CCCNC(=O)NC1Cc2ccc(C3=NNC(=O)CC3)cc2C1 (stereo not given)	214 to 216
CCOP(=O)(OCC)C(O)c1ccccc1 (stereo not given)	83 to 83.5
O=C(c1ccc(O)cc1)c1ccc(Cl)cc1Cl	140
CCOc1cc2ncc(C#N)c(Nc3ccc4c(c3)CCC4)c2cc1OCC	85 to 88
CC(=S)NCC1CN(c2ccc3c(c2)CC(C(C)(C)C)N3C=O)C(=O)O1 (stereo not given)	219 to 221
CC(C)(C)NCC(O)COc1ccccc1-c1ccc(=S)[nH]n1 (stereo not given)	186 to 189

SMILES	melting point [°C]
CC(=O)CCc1ccc2c(c1)COc1ccc(OCc3ccc4cc(F)c(Cl)cc4n3)cc1C2SCCC(=O)O (stereo not given)	115 to 118
CC(C)NC1=Nc2ccc(Cl)cc2S(=O)(=O)N1C	139 to 141
C=CC(=O)Oc1ccc(-c2cccc(F)c2F)cc1	88.4 to 90
OC1CSC(Oc2ccc(Cl)nc2)C(O)C1O (stereo not given)	218
O=C(O)C1Cc2cccc([N+](=O)[O-])c2C1 (stereo not given)	140
CC(CC(=O)OC(C)C)N=c1sc2ccccc2s1 (stereo not given)	44
Cc1cccc2c(=O)[nH]c(CC3CN4CCC3CC4)nc12 (stereo not given)	187 to 188
Cc1cc(C(C)C)c(C=O)[nH]1	90 to 93
CC#CCOc1cc(Oc2ccc(Cl)cc2F)ncn1	118
COC(=O)c1ccc(Cl)cc1NC(=O)CSc1ccccc1C	88 to 89
Cc1nc(CC(=O)O)no1	101 to 103
COc1cc(S(C)(=O)=O)c(F)cc1OCCCl	85 to 87
COc1cc(-c2ncn(CCO)c2-c2ccc(C(F)(F)F)cc2)cc(OC)c1OC	208 to 210
CCCS(=O)(=O)NCC1Cc2ccc(C3=NNC(=O)CC3)cc2C1 (stereo not given)	158 to 159
CS(=O)(=O)Nc1cccc(S(F)(F)(F)(F)F)c1	80 to 82
COC(=O)C(CNC(C)=O)C1CCC(C(C)(C)C)CC1 (stereo not given)	73 to 75
Nc1n[nH]c(NC(=O)c2ccc3ccccc3c2)n1	192 to 194
Cc1cc(C)n(C(=O)C(Cc2ccccc2)NS(=O)(=O)c2ccc(Cl)cc2)n1 (stereo not given)	137 to 138
O=c1[nH]c2cc(Cl)c(Cl)cc2[n+]([O-])c1-c1ccccc1	300 to 302
O=C(NCCCNc1c([N+](=O)[O-])cnc2ccccc12)c1ccccc1	209 to 211
